Like-named read-outs stand apart in the source and are kept apart here. Each block holds one molecule with its values, some of them ahead of it.
Assays:
OGD/R-induced H9c2 cells = assay: Protective effect on OGD/R-induced H9c2 cells (CCK-8 cell viability); format: cell-based, rat; settings: for H9c2 cell survival after OGD/R (in words): 1, 10, 25, 50 and 100 μM prior to OGD/R, vs model group; for EC50: protective effect against OGD/R injury, H9c2 cell viability
Procedure: (§1) Rat myocardial H9c2 cells (purchased from China Infrastructure of Cell Line Resources, Institute of Basic Medical Sciences, Chinese Academy of Medical Sciences) were cultured in DMEM supplemented with 10% fetal bovine serum (FBS), Penicillin (100 U/mL), and Streptomycin (100 μg/mL) at 37 °C under a humidified atmosphere of 5% CO2 and 95% air. For OGD/R treatment, H9c2 cells were cultured in glucose-free DMEM under hypoxic conditions (95%N2 + 5%CO2) for 4 h at 37 °C followed by complete medium under normal conditions with air (95%) and CO2 (5%) for 2 h. A control group was maintained under normal culture conditions (with glucose-containing DMEM and 5% CO2) without undergoing OGD/R treatment. CCK8 was used to assess cell viability. After treatment, H9c2 cells were seeded in 96-well plates, with each well supplemented with 10 μL of CCK-8 solution and then incubated for 1 h. Finally, the absorbance at 450 nm was detected by a microplate reader (Model […] 200 PRO, TECAN, Grodig, Austria).
(§2) When evaluating the cytotoxicities of the absorbed compounds, the H9c2 cells were seeded in 96-well plates at a density of 1 × 10^4 cells/well; when cells reached 80% confluence, they were treated with 25 and 50 μM of the 24 analytes to screen the non-toxic concentration ranges. Afterward, the protective effects were verified by assessing the cell viability when treating with different concentrations (1, 10, 25, 50, and 100 μM) of the analytes prior to OGD/R treatment.

H9c2 cells = assay: Cytotoxicity on H9c2 cells (CCK-8); format: cell-based, rat; settings: for inhibition at 25 µM / inhibition at 50 µM / inhibition at 100 µM: Rattus norvegicus, read-out: Inhibition rate; for inhibition at 25 µM / inhibition at 50 µM / inhibition at 100 µM / Inhibition rate: H9c2 cells, n=3; for Effect on H9c2 cell viability / cytotoxicity (in words): CCK-8, compared to the control group
Procedure: as §1
as §2, with “they were treated with 25 and 50 μM of the 24 analytes to screen the non-toxic concentration ranges.” left out

[1] = Pharmacokinetic study in rats after oral administration of QSG; settings: for AUC(0-inf): AUC0→∞; for Oral relative bioavailability: exposure level (AUC0→∞) compared with the dosage of each compound in QSG; for AUCi: exposure (AUC0→∞) of the component in rats after oral QSG, as used for ECI; for Absorption efficiency / bioavailability (in words): from Table S12, rats
Procedure: (§3) Ion source parameters were set as follows: temperatures of drying gas and sheath gas were 300 °C and 300 °C, flow rates of drying gas and sheath gas were 7 L/min and 11 L/min, the nebulizer was set at 35 psig, capillary voltage was 3500 V (−), and nozzle voltage was 2000 V (−). […] Chromatographic separations were conducted on a ZORBAX Eclipse Plus C18 column (3.0 × 50 mm, 1.8 μm, Agilent Technologies, California, USA). The mobile phase was composed of 0.1% aqueous FA (A, (v/v)) and 0.1% formic acid methanol (B), the flow rate was set at 0.5 mL/min, and the column oven was maintained at 40 °C.
(§4) Protein precipitation was carried out for each time point for plasma samples, calibration samples, or QC samples by introducing four volumes of acetonitrile containing 400 ng/mL of icariin. Then, 10 μL 10% aqueous ascorbic acid (v/v) was spiked into each sample to prevent the oxidation of phenolic compounds. […] An aliquot (450 μL) of the supernatant was transferred and dried under nitrogen vacuum.
(§5) The pharmacokinetic parameters were calculated by DAS software (version 2.0) for a non-compartmental analysis.

[2] = Concentrations of 24 analytes in QSG treated plasma (Table S5); settings: for concentration at 0.08 h / concentration at 0.17 h / concentration at 0.5 h / concentration at 1 h / concentration at 2 h / concentration at 4 h / concentration at 8 h / concentration at 12 h: Sprague Dawley, rat, plasma, oral, 7 g/kg; for Concentration: QSG treated plasma, n = 5
[3] = rat, in vivo
Procedure: as §3, §4, §5

[4] = Sprague Dawley, rat, plasma, po, 7 g/kg
[5] = Sprague Dawley, rat, plasma, po, 7 g/kg, Table S12, rats, oral QSG
[6] = Sprague Dawley, rat, plasma, po, 7 g/kg, rat plasma, single oral 7 g/kg QSG, n = 6
[7] = rat plasma, single oral 7 g/kg QSG, n = 6

Molecule: O=C(/C=C/c1ccc(O)c(O)c1)O[C@H]1[C@H](O)C[C@](O)(C(=O)O)C[C@H]1OC(=O)/C=C/c1ccc(O)c(O)c1 [Isochlorogenic acid C]
- H9c2 cell survival after OGD/R (in words) (OGD/R-induced H9c2 cells): significantly improve H9c2 cell survival rates
- EC50 (OGD/R-induced H9c2 cells): 1.09 µM
- Inhibition rate (H9c2 cells; 25 μM): -11.8 ± 6.3%
- Inhibition rate (H9c2 cells; 50 μM): -16.6 ± 1.3%
- Inhibition rate (H9c2 cells; 100 μM): -6.3 ± 2.3%
- Effect on H9c2 cell viability / cytotoxicity (in words) (H9c2 cells): significantly enhanced cell viabilities
- AUC0→∞ ([1]; Table S12, rats, oral QSG): 170.5 ng·h/mL
- AUCi [1]: 170.5
- Oral relative bioavailability [1]: 0.008%
- Absorption efficiency / bioavailability (in words) ([1]; oral QSG): less readily absorbed
- AUC0→t [1, 7]: 116.3 ± 39.63 ng·h/mL
- AUC0→∞ [1, 7]: 170.5 ± 80.02 ng·h/mL
- Cmax [1, 7]: 33.95 ± 8.980 ng/mL
- MRT [1, 7]: 8.361 ± 4.800 h
- T1/2 [1, 7]: 16.43 ± 14.14 h
- Tmax [1, 7]: 0.334 ± 0.165 h
- Shape of the plasma concentration–time curve (in words) ([1]; rats, oral QSG): Double peaks
- Concentration ([2]; 0.08 h): 12.829 ± 7.386 ng/mL
- Concentration ([2]; 0.17 h): 23.904 ± 9.523 ng/mL
- Concentration ([2]; 0.5 h): 18.491 ± 8.090 ng/mL
- Concentration ([2]; 1 h): 11.005 ± 7.334 ng/mL
- Concentration ([2]; 2 h): 7.777 ± 3.293 ng/mL
- Concentration ([2]; 4 h): 2.637 ± 2.154 ng/mL
- Concentration ([2]; 8 h): 7.703 ± 2.363 ng/mL
- Concentration ([2]; 12 h): 1.848 ± 1.625 ng/mL

Molecule: O=c1cc(-c2ccc(O)c(O)c2)oc2cc(O[C@@H]3O[C@H](CO)[C@@H](O)[C@H](O)[C@H]3O)cc(O)c12 [Luteoloside]
- H9c2 cell survival after OGD/R (in words) (OGD/R-induced H9c2 cells): significantly improve H9c2 cell survival rates
- Inhibition rate (H9c2 cells; 25 μM): -4.2 ± 4.7%
- Inhibition rate (H9c2 cells; 50 μM): 8.1 ± 5.7%
- Inhibition rate (H9c2 cells; 100 μM): 4.1 ± 1.7%
- Oral relative bioavailability [3]: 0.019%
- AUC0→∞ ([3]; po): 20.86 ng·h/mL
- Shape of the plasma concentration–time curve (in words) ([3]; po): Double peaks
- AUC0→t ([3]; po, 7 g/kg): 12.39 ± 2.708 ng·h/mL
- AUC0→∞ ([3]; po, 7 g/kg): 20.86 ± 6.586 ng·h/mL
- T1/2 ([3]; po, 7 g/kg): 21.76 ± 16.85 h

Molecule: Salvianolic acid B
- H9c2 cell survival after OGD/R (in words) (OGD/R-induced H9c2 cells): significantly improve H9c2 cell survival rates
- Inhibition rate (H9c2 cells; 25 μM): -38.9 ± 5.2%
- Inhibition rate (H9c2 cells; 50 μM): -17.1 ± 7.2%
- Inhibition rate (H9c2 cells; 100 μM): 0.1 ± 3.2%
- Effect on H9c2 cell viability / cytotoxicity (in words) (H9c2 cells): significantly enhanced cell viabilities
- AUC0→∞ ([1]; Table S12, rats, oral QSG): 2176 ng·h/mL
- AUCi [1]: 2176
- Oral relative bioavailability [1]: 0.013%
- Absorption efficiency / bioavailability (in words) ([1]; oral QSG): much lower than most compounds
- AUC0→t [1, 7]: 1475 ± 187.4 ng·h/mL
- AUC0→∞ [1, 7]: 2176 ± 842.3 ng·h/mL
- Cmax [1, 7]: 205.3 ± 65.50 ng/mL
- MRT [1, 7]: 11.08 ± 1.809 h
- T1/2 [1, 7]: 10.83 ± 5.740 h
- Tmax [1, 7]: 0.566 ± 0.182 h
- MRT ([1]; rat plasma, single oral 7 g/kg QSG, n = 6, listed as salvianolic acid B): more than 10 h
- Shape of the plasma concentration–time curve (in words) ([1]; rats, oral QSG): Double peaks
- Share of the total exposures (AUC0→∞) of all analytes ([1]; rats, oral QSG, 11 analytes): 43.48%
- Concentration ([2]; 0.08 h): 68.337 ± 49.223 ng/mL
- Concentration ([2]; 0.17 h): 115.490 ± 60.235 ng/mL
- Concentration ([2]; 0.5 h): 174.763 ± 84.875 ng/mL
- Concentration ([2]; 1 h): 83.989 ± 21.934 ng/mL
- Concentration ([2]; 2 h): 47.989 ± 9.996 ng/mL
- Concentration ([2]; 4 h): 34.225 ± 16.349 ng/mL
- Concentration ([2]; 8 h): 91.217 ± 8.136 ng/mL
- Concentration ([2]; 12 h): 56.609 ± 10.151 ng/mL

Further lines, with some results ahead:

- AUC [1, 4]: 27.7 ng·h/mL
- AUC(0-t) [1, 4]: 18.5 ± 5.01 ng·h/mL
- Cmax [1, 4]: 4.31 ± 0.952 ng/mL
- MRT [1, 4]: 6.79 ± 4.77 h
- Tmax [1, 4]: 0.516 ± 0.15 h
- half-life [1, 4]: 10.9 ± 9.19 h
- AUC(0-inf) [1, 5]: 27.7 ng·h/mL
- AUC(0-inf) [1, 6]: 27.7 ± 12.2 ng·h/mL
- Oral relative bioavailability [1]: 0.033%
- concentration at 0.08 h [2]: 0.74 ± 0.932 ng/mL
- concentration at 0.17 h [2]: 2.81 ± 1.24 ng/mL
- concentration at 0.5 h [2]: 4.23 ± 0.976 ng/mL
- concentration at 1 h [2]: 2.77 ± 1.06 ng/mL
- concentration at 2 h [2]: 1.45 ± 0.436 ng/mL
- concentration at 4 h [2]: 1.03 ± 0.395 ng/mL
- concentration at 8 h [2]: 0.656 ± 0.349 ng/mL
- concentration at 12 h [2]: 0.289 ± 0.213 ng/mL
Molecule: COc1ccc(-c2coc3cc(O)ccc3c2=O)cc1 [Formononetin]
- H9c2 cell survival after OGD/R (in words) (OGD/R-induced H9c2 cells): significantly improve H9c2 cell survival rates
- EC50 (OGD/R-induced H9c2 cells; Rattus norvegicus): 65 µM
- Protective effects on OGD/R-induced H9c2 cells (in words) (OGD/R-induced H9c2 cells; at 50 and 100 μM): significant protective effects
- inhibition at 25 µM (H9c2 cells; 25 μM): 10.7 ± 4.5%
- inhibition at 50 µM (H9c2 cells; 50 μM): 10.8 ± 5.2%
- inhibition at 100 µM (H9c2 cells; 100 μM): 13.5 ± 2.2%

- AUC [1, 4]: 4.89 ng·h/mL
- AUC(0-t) [1, 4]: 3.17 ± 0.843 ng·h/mL
- Cmax [1, 4]: 1.65 ± 0.585 ng/mL
- MRT [1, 4]: 7.68 ± 2.17 h
- Tmax [1, 4]: 0.17 h
- half-life [1, 4]: 12.4 ± 10.5 h
- AUC(0-inf) [1, 5]: 4.89 ng·h/mL
- AUC(0-inf) [1, 6]: 4.89 ± 2.77 ng·h/mL
- Shape of the plasma concentration–time curve (in words) ([1]; rats, oral QSG): Double peaks
- concentration at 0.08 h [2]: 0.69 ± 0.227 ng/mL
- concentration at 0.17 h [2]: 1.65 ± 0.585 ng/mL
- concentration at 0.5 h [2]: 0.454 ± 0.151 ng/mL
- concentration at 1 h [2]: 0.355 ± 0.17 ng/mL
- concentration at 2 h [2]: 0.179 ± 0.041 ng/mL
- concentration at 4 h [2]: 0.231 ± 0.054 ng/mL
- concentration at 8 h [2]: 0.053 ± 0.038 ng/mL
- concentration at 12 h [2]: 0.124 ± 0.092 ng/mL
Molecule: O=C(/C=C/c1ccc(O)cc1)c1ccc(O)cc1O [Isoliquiritigenin]
- H9c2 cell survival after OGD/R (in words) (OGD/R-induced H9c2 cells): significantly improve H9c2 cell survival rates
- EC50 (OGD/R-induced H9c2 cells; Rattus norvegicus): 10.3 µM
- inhibition at 25 µM (H9c2 cells; 25 μM): -14.9 ± 9.3%
- inhibition at 50 µM (H9c2 cells; 50 μM): -1.2 ± 7.6%
- inhibition at 100 µM (H9c2 cells; 100 μM): 7.2 ± 4.2%

- AUC [1, 4]: 10.9 ng·h/mL
- AUC(0-t) [1, 4]: 10.3 ± 0.93 ng·h/mL
- Cmax [1, 4]: 12.8 ± 4.12 ng/mL
- MRT [1, 4]: 1.84 ± 0.448 h
- Tmax [1, 4]: 0.17 h
- half-life [1, 4]: 2.6 ± 1.22 h
- AUC(0-inf) [1, 6]: 10.9 ± 0.867 ng·h/mL
- concentration at 0.08 h [2]: 5.84 ± 1.29 ng/mL
- concentration at 0.17 h [2]: 13.6 ± 4.12 ng/mL
- concentration at 0.5 h [2]: 4.37 ± 1.59 ng/mL
- concentration at 1 h [2]: 2.41 ± 0.697 ng/mL
- concentration at 2 h [2]: 0.911 ± 0.249 ng/mL
- concentration at 4 h [2]: 0.251 ± 0.183 ng/mL
- concentration at 8 h [2]: 0.188 ± 0.101 ng/mL
- concentration at 12 h [2]: 0.042 ± 0.044 ng/mL
Molecule: O=c1cc(-c2ccc(O)c(O)c2)oc2cc(O)cc(O)c12 [Luteolin]
- H9c2 cell survival after OGD/R (in words) (OGD/R-induced H9c2 cells): significantly improve H9c2 cell survival rates
- EC50 (OGD/R-induced H9c2 cells; Rattus norvegicus): 11.3 µM
- inhibition at 25 µM (H9c2 cells; 25 μM): 12.2 ± 4%
- inhibition at 50 µM (H9c2 cells; 50 μM): 13.1 ± 7.2%
- inhibition at 100 µM (H9c2 cells; 100 μM): 18.1 ± 4.2%
